Test results published in publication PMC4290084, “Multiplex Imaging and Cellular Target Identification of Kinase Inhibitors via an Affinity-Based Proteome Profiling Approach” (Scientific Reports, 2015).

Legend:
Aurora kinase A (AKA) [1] = target: T1, Aurora kinase A (AKA) (Homo sapiens, UniProt O14965); test: Kinase-Glo in vitro kinase inhibition assay with recombinant AKA; also photoaffinity labeling with PD/WB and IP in HeLa cells; format: biochemical
T1 construct: gene AURKA; recombinant AKA
T1 sequence (O14965 1-403): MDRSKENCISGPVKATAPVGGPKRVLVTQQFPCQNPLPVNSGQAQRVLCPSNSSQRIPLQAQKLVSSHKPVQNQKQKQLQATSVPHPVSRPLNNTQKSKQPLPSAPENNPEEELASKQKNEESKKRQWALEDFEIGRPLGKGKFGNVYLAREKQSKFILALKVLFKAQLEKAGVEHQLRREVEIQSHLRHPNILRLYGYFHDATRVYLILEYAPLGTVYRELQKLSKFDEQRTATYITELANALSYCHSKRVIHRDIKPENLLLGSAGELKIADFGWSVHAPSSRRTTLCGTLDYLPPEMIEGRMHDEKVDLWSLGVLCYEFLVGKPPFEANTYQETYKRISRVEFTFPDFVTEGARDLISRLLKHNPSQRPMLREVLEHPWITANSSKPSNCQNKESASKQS

Aurora kinase A (AKA) [2] = target: T1, Aurora kinase A (AKA); test: Kinase-Glo in vitro kinase inhibition assay with recombinant AKA; format: biochemical

| IC50 (Aurora kinase A (AKA) [1]) | IC50 (Aurora kinase A (AKA) [2]) | Structure (SMILES) |
| --- | --- | --- |
| 15.1 ± 0.5 nM | – | C#CCCC1(CCNC(=O)c2ccc(Nc3ncc4c(n3)-c3ccc(Cl)cc3C(c3c(F)cccc3OC)=NC4)cc2OC)N=N1 [MLN-2] |
| – | 23.3 ± 0.5 nM | C#CCNC(=O)c1ccc(Nc2ncc3c(n2)-c2ccc(Cl)cc2C(c2c(F)cccc2OC)=NC3)cc1OC [MLN-1] |
| – | 67.2 ± 0.4 nM | COc1cc(Nc2ncc3c(n2)-c2ccc(Cl)cc2C(c2c(F)cccc2OC)=NC3)ccc1C(=O)NCCNC(=O)OC1CC/C=C/CCC1 (stereo not drawn) [MLN-3] |
